Test: Solubility of bismaleimides in organic solvents (saturated solution, gravimetric)
Type: physicochemical
Details: in comparison to other aliphatic bismaleimides
Protocol: The solubility of compounds in the present invention is determined as follows: • 10 g of a sample are weighed into a 100 ml conical flask. 50 ml of a solvent are added to the flask and the mixture is stirred with magnetic bar for 1 h at 25° C. to assure the formation of a saturated solution. If the entire sample is dissolved, additional portion of the sample should be added and the mixture should be stirred further for 1 h. In the end, a portion of undissolved material should be clearly seen at the bottom of the flask. After that, the supematant is filtered through a folded filter. Some 15 g of the filtrate are weighed into a tared round-bottom flask, and the solvent is evaporated to dryness on a rotary evaporator at 90° C. under reduced pressure. Finally, the flask is dried in a vacuum drying cabinet at 120° C. for 2 h under reduced pressure, cooled down to room temperature in a desiccator and weighed.
The solubility value is then calculated as:
The solubility of the example and comparative examples was determined as follows: • 10 g of a sample were weighed into a 100 ml conical flask. 50 ml of a solvent were added to the flask and the mixture was stirred with magnetic bar for 1 h at 25° C. to assure the formation of a saturated solution. If the entire sample was dissolved, additional portion of the sample should be added and the mixture should be stirred further for 1 h. […]

CC1CC(C(CN2C(=O)C=CC2=O)CN2C(=O)C=CC2=O)CC(C)(C)C1 (stereo not shown) [2-(3,3,5-trimethylcyclohexyl)propane-1,3-bismaleimide]
Solubility in different organic solvents (in words): highly soluble

Source: patent US20240351981A1, “NOVEL BISMALEIMIDE COMPOUNDS HAVING IMPROVED SOLUBILITY AND THEIR USE IN CURABLE COMPOSITIONS” (Evonik Operations GmbH, priority 2021, published 2024)
